Assay results: patent US20230390298A1, “METHOD AND COMPOSITIONS FOR USE IN PROVIDING MALE CONTRACEPTION” (Eppin Pharma, Inc., priority 2022, published 2023)

B1: SEMG1: semenogelin, seminal vesicle protein that binds EPPIN on sperm and inhibits progressive motility (protein, UniProt P04279 24-462, looked up)
Semenogelin-1: QKGGSKGRLPSEFSQFPHGQKGQHYSGQKGKQQTESKGSFSIQYTYHVDANDHDQSRKSQQYDLNALHKTTKSQRHLGGSQQLLHNKQEGRDHDKSKGHFHRVVIHHKGGKAHRGTQNPSQDQGNSPSGKGISSQYSNTEERLWVHGLSKEQTSVSGAQKGRKQGGSQSSYVLQTEELVANKQQRETKNSHQNKGHYQNVVEVREEHSSKVQTSLCPAHQDKLQHGSKDIFSTQDELLVYNKNQHQTKNLNQDQQHGRKANKISYQSSSTEERRLHYGENGVQKDVSQSSIYSQTEEKAQGKSQKQITIPSQEQEHSQKANKISYQSSSTEERRLHYGENGVQKDVSQRSIYSQTEKLVAGKSQIQAPNPKQEPWHGENAKGESGQSTNREQDLLSHEQKGRHQHGSHGGLDIVIIEQEDDSDRHLAQHLNNDRNPLFT

What was measured:
human sperm motility = assay: live sperm computer-assisted sperm analysis (CASA) assay; format: cell-based; conditions: for inhibitory activity in the CASA sperm motility assay: human spermatozoa
Experimental: In another embodiment, a computer-assisted sperm analysis (CASA) can be used as a live cell compound screen for determining the effect of compounds on human sperm motility. Additionally, to facilitate the EC50 evaluation of compounds using different ejaculates, reducing inter-assay variation due to differences in sperm quality in different semen samples, an index of relative motility inhibition (RMI) was developed. This is calculated as: RMI=[% motility*VSL]; percentage of motile sperm (% motility) or the percentage of progressively motile sperm (% progressive motility, RPMI) multiplied by the straight-line velocity (VSL); the average velocity measured in a straight line from the beginning to the end of a track in μm/sec. Normalized RMI can be calculated by dividing the RMI of each experimental condition by its respective DMSO control.
The live-sperm Computer Assisted Sperm Analysis (CASA) Assays were done as follows.
Human semen samples were obtained from the Department of Obstetrics and Gynecology, University of North Carolina Memorial Hospital, Chapel Hill, NC. […] Semen samples were allowed to liquefy for 30 minutes and subjected to standard semen analysis to determine acceptability before freezing. All samples were stored in liquid nitrogen, and de-identified by the Department of Obstetrics and Gynecology, University of North Carolina Memorial Hospital, Chapel Hill, NC before further processing. A density gradient (SpermCare catalog number 2221 and 2222, InvitroCare Inc., Frederick MD) was used to prepare spermatozoa for further analysis. At least 3 independent experiments were done per assay, each using several pooled samples from a single donor. Briefly sperm were washed after the density gradient with EP buffer-0.4% human serum albumin and resuspended in the same buffer for compound treatments. Sperm were diluted to 5×10^6/mL in 12×75 mm glass tubes with the appropriate treatment and incubated at 37° C. in 5% CO2. For CASA analysis, sperm were loaded onto slides (CellVison 4 chamber (20 μM), catalog number CV-1020-4CV, Fertility Technology Resources, Murphy NC) and warmed to 37° C. before analysis. Videos of sperm motility were collected using a Nikon ECLIPSE TS2-FL inverted microscope with 10× eyepiece and a 10× negative phase contrast objective and a Basler high speed camera (1280×1024 px, 200 fps, USB 3, CMOS). AVI Videos were analyzed using OpenCASA software (version 2). Units for CASA parameters are as follows: VAP (average path velocity), VSL (straight line velocity), and VCL (curvilinear velocity)=μm/sec (microns/sec); ALH (lateral head amplitude)=μm; BCF (beat cross-frequency)=Hz. The relative mobility index (RMI) is a measure of the effect of compound on sperm and is calculated as the VSL x % normal motility and normalized to the appropriate DMSO control.

recombinant human EPPIN = target: T1, recombinant human EPPIN (Homo sapiens, UniProt O95925); assay: Epitope ALPHA (AlphaScreen) assay, EPPIN / anti-EPPIN antibody binding; conditions: EPPIN on donor beads, anti-EPPIN antibody on acceptor beads
T1 construct: made in house; host or cells: E. coli strain OrigamiB-DE3-pLysS
From the text: Two assays for high throughput screening (HTS) of compounds have been established and validated. In one embodiment, these assays are based on an adaptation of the AlphaScreen™ assay developed by PerkinElmer (Waltham, MA). In the AlphaScreen™ (amplified luminescent proximity homogeneous assay) assay donor and acceptor beads (˜200 nm) are employed to hold interacting protein molecules. When the interacting protein molecules bind (for example EPPIN {on the donor bead} and anti-EPPIN {on the acceptor bead}), single state oxygen molecules diffuse from the donor bead to the acceptor bead (˜4 μsec) and fluorophores subsequently emit light at 520-620 nm. In the primary compound screen, histidine-tagged recombinant human EPPIN is attached to NTA-donor beads and anti-EPPIN (S21C; against the EPPIN C-terminal domain) is attached to protein A-acceptor beads. This epitope specific assay gives strong and stable binding between EPPIN and the antibody.
Briefly, recombinant histidine-tagged recombinant EPPIN was pre-incubated with Ni-NTA chelate donor beads (catalog number AS101, Perkin Elmer, Waltham MA) and anti-Eppin 007 or anti-Eppin Q20E antibody was pre-incubated with Protein A acceptor beads (catalog number 6760136, Perkin Elmer, Waltham MA) for 30 minutes. Equal volumes of donor and acceptor bead mixtures were pipetted into white opaque 384-well microplates (OptiPlate-384; PerkinElmer, Waltham, MA) in a final volume of 30 μL. Plates were covered with top seal and transferred to a Synergy HTS Multiplatform automated plate reader (Biotek, Winooski, VT). After shaking for 2 min, plates were read with an excitation 680/30 filter, an emission 570/100 filter and data acquired using Gen5 software (Biotek). Each set of samples was pipetted in 4 replicates. The final concentration of assay components was 58 nM EPPIN, 2 nM anti-Eppin 007 or Q20E antibody, 5 μg/ml donor beads and 10 μg/ml acceptor beads in 0.1M Tris pH=8, 0.1% bovine serum albumin and 0.01% Tween-20. Negative controls were performed under the same conditions in the absence of EPPIN or antibody and in the presence of beads only. The antibody 007 used in this assay binds the same epitope that binds the EP055 compound so the two entities compete for binding to EPPIN. Q20E binds the n-terminal part of EPPIN.
Non-specific interactions of compound with assay components were measured at the same time with the IgG detection kit ([…] biotinylated rabbit IgG) to generate the bead interaction: 10 μg/ml donor and acceptor beads. (catalog number 6760617C, Perkin Elmer).
A specific signal for each time point was calculated by subtracting the background signal (obtained in the absence of Eppin) from its respective total signal. EC50 values for the binding of EPPIN to specific compounds were calculated by non-linear regression curve fitting using the specific signal obtained after 16 h of incubation using GraphPad Prism version 6.00 for Windows (GraphPad Software, La Jolla California USA, www.graphpad.com).

T1 sequence (O95925 22-133): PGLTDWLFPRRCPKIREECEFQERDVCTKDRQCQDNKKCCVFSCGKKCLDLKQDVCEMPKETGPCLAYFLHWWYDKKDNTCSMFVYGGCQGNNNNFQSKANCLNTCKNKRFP

Molecule | inhibitory activity in the CASA sperm motility assay (human sperm motility) | inhibitory activity in the epitope ALPHA assay (recombinant human EPPIN) | EC50 (human sperm motility; inhibiting sperm motility and impairing proper function, read-out: calculated EC50 value for inhibiting sperm motility)
COC(=O)NNc1nc(Nc2ccc(NC(C)=O)c(O)c2)nc(SCCC(C)=O)n1 [EP091, methyl 2-(4-((4-acetamido-3-hydroxyphenyl)amino)-6-((3-oxobutyl)thio)-1,3,5-triazin-2-yl) hydrazine-1-carboxylate] | inhibitory activity | inhibitory activity | –
COC(=O)NNc1nc(Nc2ccc(NC(C)=O)c(O)c2)nc(SCCC(=O)O)n1 [EP083, 3-((4-((4-acetamido-3-hydroxyphenyl)amino)-6-(2-(methoxycarbonyl)hydrazineyl)-1,3,5-triazin-2-yl)thio)propanoic acid] | inhibitory activity | inhibitory activity | –
CO/N=C/c1ccc(Cc2cc(NNC(=O)OC)cc(SCCC(=O)OC)n2)cc1O [EP103, methyl 3-{[6-({3-hydroxy-4-[(1E)-(methoxyimino)methyl]phenyl}methyl)-4-{[(methoxycarbonyl)amino]amino}pyridin-2-yl]sulfanyl}propanoate] | inhibitory activity | inhibitory activity | –
COC(=O)CCSc1cc(NNC(=O)OC)cc(Cc2ccc(CC(C)=O)c(O)c2)n1 [EP101, methyl 3-[(6-{[3-hydroxy-4-(2-oxopropyl)phenyl]methyl}-4-{[(methoxycarbonyl)amino]amino}pyridin-2-yl)sulfanyl]propanoate] | inhibitory activity | inhibitory activity | –
COC(=O)CCCSc1nc(NNC(=O)OC)nc(Nc2ccc(NC(C)=O)c(O)c2)n1 [EP098, methyl 4-({4-[(4-acetamido-3-hydroxyphenyl)amino]-6-{[(methoxycarbonyl)amino]amino}-1,3,5-triazin-2-yl}sulfanyl)butanoate] | inhibitory activity | inhibitory activity | –
COC(=O)CCSc1cc(NNC(=O)OC)nc(Cc2ccc(NC(C)=O)c(O)c2)n1 [EP100, methyl 3-({2-[(4-acetamido-3-hydroxyphenyl)methyl]-6-{[(methoxycarbonyl)amino]amino}pyrimidin-4-yl}sulfanyl)propanoate] | inhibitory activity | inhibitory activity | –
CO/N=C/c1ccc(Cc2nc(NNC(=O)OC)cc(SCCC(=O)OC)n2)cc1O [EP102, methyl 3-{[2-({3-hydroxy-4-[(1E)-(methoxyimino)methyl]phenyl}methyl)-6-{[(methoxycarbonyl)amino]amino}pyrimidin-4-yl]sulfanyl}propanoate] | inhibitory activity | inhibitory activity | –
COC(=O)NNc1nc(Nc2ccc(NC(C)=O)c(O)c2)nc(SCCCC(=O)O)n1 [EP096, 4-((4-((4-acetamido-3-hydroxyphenyl)amino)-6-(2(methoxycarbonyl)hydrazineyl)-1,3,5-triazin-2-yl)thio)butanoic acid] | inhibitory activity | inhibitory activity | –
COC(=O)CCSc1nc(NNC(=O)OC)nc(Nc2ccc(NC(C)=O)c(O)c2)n1 [EP082, methyl 3-({4-[(4-acetamido-3-hydroxyphenyl)amino]-6-{[(methoxycarbonyl)amino]amino}-1,3,5-triazin-2-yl}sulfanyl)propanoate] | inhibitory activity | inhibitory activity | –
CO/N=C/c1ccc(Cc2cc(NNC(=O)OC)cc(SCCC(=O)O)n2)cc1O [EP104, 3-{[6-({3-hydroxy-4-[(1E)-(methoxyimino)methyl]phenyl}methyl)-4-{[(methoxycarbonyl)amino]amino}pyridin-2-yl]sulfanyl}propanoic acid] | inhibitory activity | inhibitory activity | –
B1 | – | – | 8.8 µM
